Assay results taken from PMC4682813, “The Aminosteroid Derivative RM-133 Shows In Vitro and In Vivo Antitumor Activity in Human Ovarian and Pancreatic Cancers” (PLoS ONE, 2015).
Values joined by “and” are separate entries in the source; they are usually repeats but may differ in a detail not shown here. Equal entries are not always repeated.

Key:
OVCAR-3 cells = experiment: MTS cell proliferation (viability) assay, OVCAR-3; assay type: cell-based; details: Homo sapiens, 72 h incubation
Experimental: Human ovarian (OVCAR-3) and pancreatic (PANC-1) cancer cells were purchased from the American Type Culture Collection (ATCC, Rockville, MD) and maintained in exponential growth in a 5% CO2 humidified atmosphere at 37°C. OVCAR-3 cells were routinely grown in RPMI-1640 medium (Sigma, St. Louis, MO) supplemented with 20% FBS, L-glutamine (2 mM), antibiotics (100 IU penicillin/mL and 100 μg streptomycin/mL), insulin (50 ng/mL), and estradiol (1 nM). For OVCAR-3 cell proliferation assays, the medium used was identical, except for the omission of estradiol. […]
The cell proliferation assay was performed with a colorimetric method using 3-(4,5-dimethylthiazol-2-yl)-5-(3-carboxymethoxyphenyl)2-(4-sulfophenyl)-2H-tetrazolium (MTS) (Cell Titer 96 Aqueous, Promega, Madison, WI). […] MTS is converted to water-soluble colored formazan by dehydrogenases present in metabolically active cells, and therefore, the MTS assay allows the immediate determination of absorbance of the soluble formazan directly in the cell medium and thus the measurement of viable cells. The A 490 of the medium was determined using a 96-well microplate reader INFINITE 200 PRO series (TECAN, Männedorf, Switzerland). The IC50 value of RM-133 was determined for each of the two cell lines using the GraphPad Prism 7 software (GraphPad Software, Inc., San Diego, CA).

[1] = RM-133 plasma and tumor concentration in nude mice after the xenograft experiment (second part), LC-MS/MS; assay type: in vivo, nu/nu nude mice; details: for concentration at 12 h: 12 h after single s.c. 60 mg/kg (0.1 mL)
Experimental: At the end of the xenograft experiment, and in order to obtain preliminary pharmacological data, mice in treated groups were separated into 4 subgroups of 2–3 mice each, injected s.c. with RM-133 (60 mg/kg) and sacrificed after 3, 7, 12, or 24 h. In parallel, mice in the control group were also separated into 4 subgroups, treated with RM-133 (60 mg/kg) as for treated mice, and sacrificed at the same intervals. Blood was collected from mice by cardiac puncture, and the plasma concentration of RM-133 determined by liquid chromatography–tandem mass spectrometry (LC-MS/MS) as previously reported. Tumors of the mice in the treated group were collected at necropsy, pooled, homogenized according to a known procedure and the quantity of RM-133 was determined by LC-MS/MS.

[2] = Plasma concentration of RM-133 in mice at different injection doses; assay type: in vivo, Balb/c mice
Experimental: Eight ♀ Balb/c mice weighing approximately 20 g were separated in 4 groups. Mice in each group received a single s.c. injection of RM-133 (30, 60, 120, or 480 mg/kg). The vehicle used was propylene glycol:EtOH (92:8) and injection volume was 0.1 mL for all concentrations except at 480 mg/kg, where 0.2 mL was used. Blood was collected by cardiac puncture after 12 h, and the plasma concentration of RM-133 determined by LC-MS/MS as above.

[3] = Solubility of RM-133 in injection vehicles; assay type: physicochemical; details: vehicle #5 sunflower oil:tetrahydrofuran (92:8)
From the text: Eleven different vehicles were investigated by s.c. injection. These vehicles were formulated as follows: vehicle #1 [propylene glycol:EtOH (92:8)]; vehicle #2 [aqueous 0.4% methylcellulose:EtOH (92:8)]; vehicle #3 [castor oil:EtOH:benzyl alcohol:benzyl benzoate (65:10:10:15)]; vehicle #4 [sunflower oil:EtOH (92:8)]; vehicle #5 [sunflower oil:tetrahydrofuran (92:8)]; vehicle #6 [aqueous 25% β-cyclodextrin:EtOH (92:8)]; vehicle #7 [sesame oil:EtOH:benzyl benzoate:benzyl alcohol:Tween 80 (89.8:7.8:1:1:0.5)]; vehicle #8 [soya oil:EtOH (92:8)]; vehicle #9 [RPMI medium:EtOH (92:8)]; vehicle #10 [saline:dimethyl sulfoxide (DMSO):Tween 80 (89.5:10:0.5)]; and vehicle #11 [saline:benzyl alcohol:carboxymethylcellulose:Tween 80 (98.2:0.9:0.5:0.4)]. The eight vehicles producing the best RM-133 solubility (#1–8) were injected s.c. (0.1 mL) without the test compound (RM-133) for tolerance and behavioral evaluation studies, by observing mice at 0.25, 1, 3, 7, 23, 26, 28, 30, and 96 h post-injection. Finally, RM-133 was injected s.c. once at 120 mg/kg/0.1 mL of the best […] tolerated vehicles (#1,2,4–7) into ♀ Balb/c mice (4 per group), and mice were next monitored with blood collection by cardiac puncture after 3 and 12 h. The plasma concentration of RM-133 was then determined by LC-MS/MS as above.

CYP3A4 = test system: CYP3A4; parameters: method as in PMID 25300820; details: low to moderate risk of drug-drug interactions; cited from earlier work

## C#C[C@]1(O)CC[C@H]2[C@@H]3CC[C@H]4C[C@H](O)[C@@H](N5CCN(C(=O)[C@@H]6CCCN6C(=O)c6ccc7ccccc7n6)CC5)C[C@]4(C)[C@H]3CC[C@@]21C [RM-133]
OVCAR-3 cells
  IC50: 800 nM
[1]; 21 days-xenograft experiment, 60 mg/kg daily s.c.
  accumulation in blood: does not accumulate in blood
[1]; OVCAR-3 tumors of treated mice collected at necropsy, pooled
  concentration inside the tumor: 1.2 μM and 773 ng/g
[1]; nu/nu nude, mouse, plasma, sc, 60 mg/kg, group A: previously treated daily for 21 days
  concentration at 12 h: 178 ng/mL
[1]; nu/nu nude, mouse, plasma, sc, 60 mg/kg, group B: not previously exposed to the drug
  concentration at 12 h: 91 ng/mL
[1]; nu/nu nude, mouse, plasma, sc, 60 mg/kg, single s.c. 60 mg/kg in 0.1 mL propylene glycol:EtOH (92:8), 24 h, nude mice
  concentration at 24 h: 81 ng/mL
[1]; single s.c. 60 mg/kg in 0.1 mL propylene glycol:EtOH (92:8), 3 h, nude mice
  maximum average plasma concentration: 460 ng/mL
[2]; 480 mg/kg s.c. in 0.2 mL propylene glycol:EtOH (92:8), motion discomfort, same with vehicle alone
  tolerance: not tolerated
[2]; 12 h after single s.c. 30 mg/kg, propylene glycol:EtOH (92:8)
  plasma concentration as percentage of the injected amount: 17%
[2]; female, mouse, plasma, sc, 12 h after single s.c. 30 mg/kg, propylene glycol:EtOH (92:8), Balb/c mice
  concentration at 12 h: 167 ng/mL
[3]
  solubility in vehicle: poorly soluble
CYP3A4
  inhibition of CYP3A4: weak inhibition
